Like-named read-outs stand apart in the source and are kept apart here.
Assays:
[1] = tested on: human acute lymphoblastic leukemia xenografts; experiment: Necropsy and histopathologic evaluation of xenograft-bearing SCID mice; design: species or system female SCID mice; conditions: mouse, in vivo
Protocol: Animals No. 1-10 in Groups 1-4 were euthanized on Day 47 after tumor implantation (16 May 2003); Animals No. 11-20 in Groups 1-4 were euthanized on Day 48 (17 May 2003). All surviving animals in Groups 5 and 6 (except for Animal No. 12 in Group 5 and Animal No. 8 in Group 6, for explanations see below) were euthanized on Day 80 after tumor implantation […]. Animal No. 12 in Group 5 was sacrificed on Day 73 due to excessive tumor weight (>4,000 mg). Animal No. 8 in Group 6 was sacrificed on Day 73 due to tumor ulceration. Five animals in Group 7 were euthanized on Days 14, 21, 28, 35, and ten animals were euthanized on Day 38. Carcasses of all animals alive on Days 47, 48, and 80 were submitted to the Safety Assessment Department of Southern Research Institute for necropsy followed by complete histopathological evaluation. Animals in Group 7 were excluded from necropsy and complete histopathological evaluation. For the animals in Groups 1-6, tumor implantation (subcutaneous) took place on Day 0. Treatment was initiated on Day 14, and treatment was terminated on Day 45. Primary tumor excision occurred on Day 28 post-implantation in Groups 5 and 6. The animals were sacrificed on Day 80. Animals in the non-excision group were sacrificed at days 47-48.
Each tumor weighing more than 100 mg was cut in half and one half of the each tumor was frozen in O.C.T. compound using a dry ice/ethanol slush, and stored at −84° C. Tumors weighing less than 100 mg (tumors of Animals No. 1, 3, 7, 9, 11, 12, 14-18, and 20 in Group 4) were frozen in O.C.T. compound in toto. Tumor of Animals No. 2, 4, 5, 6, 8, 13, and 19 in Group 4, which weighed less than 100 mg, were preserved in 10% buffered formalin in toto. After the completion of the experiment all tumor samples frozen in O.C.T. compound (a total of 145 tumor samples) were shipped to Sierra Biomedical, Division of Charles River Laboratories, to be examined by immunohistochemistry to verify that MOLT-4 was expressing VLA-4 in vivo and thus was a valid tumor model for this study. […]

[2] = mouse, in vivo
Source text: (§4) In-life experimental work commenced on Day 0 and was terminated on Day 80. Five-to-six-weeks-old, female SCID mice were purchased from Taconic Farms, Inc. (Germantown, N.Y.) and acclimated in the laboratories one week prior to experimentation. The animals were housed in a pathogen-free barrier facility in micro-isolator cages, with five animals per cage in a 12-hour light/dark cycle. The animals received filtered Birmingham municipal water and sterile rodent food ad libitum. Mice were fed sterilizable rodent diet (Harlan-Teklad TD8656). Cages were changed twice weekly. The animals were observed daily and clinical signs were noted.
(§5) Animals were randomly divided into six groups of 20 animals each and one group of 30 animals. Two groups (Groups 1 and 5) were treated with Saline Solution 0.9% (saline). Animals in Groups 2, 6, and 7 were treated with natalizumab. Animals in Group 3 were treated with IgG4 (isotype control). Animals in Group 4 were treated with Taxol® (positive control). Treatments with saline, natalizumab, and IgG4 (Groups 1, 2, 3, 5, and 6) were administered IP on Days 14, 17, 21, 24, 28, 31, 35, 38, 42, and 45 (Q3D×2 for five weeks, Friday-Monday schedule). Treatment with natalizumab in Group 7 (a group of 30 mice) was administered on Days 14, 17, 21, 24, 28, 31, 35, and 38 (Q3D×2 for four weeks). On Day 14 natalizumab was administered at a dosage of 10 mg/kg, followed by further treatments with a dosage of 5 mg/kg/dose. […]
(§6) The animals were weighed and the subcutaneous (SC) tumors were measured on the days when treatments were administered starting on Day 14 with an exception of two measurements which were done one day before the injection (on Days 24 and 41). […]
(§7) The number of non-specific deaths, number of partial and complete tumor regressions, number of tumor-free survivors, and the individual animal's time to reach the evaluation size (time to reach four tumor mass doublings) were determined. […] Mean body weights and standard deviations were calculated for each group on each day of data collection (values are presented in Tables 8-9 through 8-15).

[3] = tested on: human MOLT-4 acute lymphoblastic leukemia xenografts; experiment: Growth of subcutaneously-implanted human MOLT-4 xenografts in SCID mice; assay type: in vivo, female SCID mice; conditions: for Effect on growth of SC-implanted MOLT-4 xenografts (primary tumor): treatment after establishment of tumor
Protocol: Mice were fed sterilizable rodent diet (Harlan-Teklad TD8656). Cages were changed twice weekly.
Thirty-to-forty milligram fragments of MOLT-4 human leukemia were implanted in mice near the right auxiliary area using a 12-gauge trocar needle and allowed to grow. The day of tumor fragment implantation was Day 0 of the experiment. Tumors were allowed to reach 75-144 mg in weight (75-144 mm3 in size) before the start of the treatments. A sufficient number of mice were implanted so that tumors in a weight range as narrow as possible were selected for the trial on the day of treatment initiation (Day 14 after tumor implantation). Those animals selected with tumors in the proper size range were randomized into treatment groups. The mean tumor weights on the first day of treatment were ranging from 84 or 96 mg; median tumor weights were 75 or 88 mg on Day 14.
Natalizumab (a 20-mg/mL solution, Gensia Sicor Pharmaceuticals Inc., Lot Nos. F23014 and G23004) and a diluent (Placebo for Tysabri®, Gensia Sicor Pharmaceuticals Inc., Lot No. F85002) were received from Biogen Idec Inc. and were stored at +2-8° C. upon receipt. Vials with a 0.97-mg/mL solution of human immunoglobulin (IgG4) were supplied by Sigma-Aldrich (St. Louis, Mo., Lot No. 122K9159) and were stored at −84° C. upon receipt. A clinical formulation of Taxol® (placlitaxel) (6.0 mg/mL in 50% cremophor-EL/50% ethanol, Bristol-Myers Squibb Company, Princeton, N.J.; Lot No. 2L57296) was purchased and refrigerated upon receipt. Saline (Saline Solution 0.9%, for animal use only) was purchased from Phoenix Pharmaceutical, Inc. (St. Joseph, Mo., Lot Nos. 262053F, 206205F, 208281F) and stored at room temperature. A new bottle of saline was used on each day of formulation.
On Day 14, a 20-mg/mL solution of natalizumab was diluted with Placebo for Tysabri® to 1.0 mg/mL. On subsequent injection days, a 0.5-mg/mL solution of natalizumab was formulated by diluting a 20-mg/mL stock solution with Placebo for Tysabri®. Care was taken not to shake the vials with natalizumab; the vials were inverted to mix. A new vial of natalizumab and Placebo for Tysabri® were used on each day of formulation. On Day 14, a supplied 0.97-mg/mL stock solution of IgG4 was thawed and injected into mice. On subsequent injection days, a 0.5-mg/mL solution of IgG4 was prepared by diluting a 0.97-mg/mL stock solution with Saline Solution 0.9%. A new vial with IgG4 was used on each day of formulation. An aliquot of a commercially formulated 6-mg/mL solution of Taxol® in 50% cremophor-EL/50% ethanol was diluted on each day of injection with Saline Solution 0.9% to make a 1.5-mg/mL solution in 12.5% cremophor-EL/12.5% ethanol/75% saline. All dosing solutions were injected within 2 to 3 hours of formulation.
Primary tumors of animals in Groups 5 and 6 were surgically excised on Day 28, one day after the median tumor weight in Group S reached 466 mg. Administration of anesthesia and surgery/post-surgery recovery procedures were conducted following approved standard laboratory methods. Briefly, each animal was anesthetized and the incision site was prepared with an antiseptic solution. An incision along the periphery of one side of the tumor (no more than 3-4 mm longer than the diameter of the tumor) was made, the skin was reflected and the tumor was everted through the incision. Tumor was dissected away from the skin and muscle. The incision was closed with a 4.0-mm wound clip. Each excised tumor was cut in half, with one half of the tumor frozen in O.C.T. compound and the second half of the tumor preserved in 10% buffered formalin. The site of the resection was monitored for tumor re-growth twice a week and when a new solid tumor was formed, its dimensions were recorded.
Animals No. 1-10 in Groups 1-4 were euthanized on Day 47 after tumor implantation (16 May 2003); Animals No. 11-20 in Groups 1-4 were euthanized on Day 48 (17 May 2003). […]

AS283 cell line = experiment: 3H-thymidine incorporation (tritiated thymidine uptake) proliferation assay, AS283; assay type: cell-based; conditions: 1, 2, 3, 4 and 5 days of exposure, eight concentrations (0.001-100 mg/mL)
Protocol: (§1) In order to assess the potential of natalizumab to induce or inhibit proliferation of transformed cells and clonal expansion possibly leading to neoplasia, experiments were performed to determine the ability of natalizumab to stimulate growth of malignant cells expressing the receptor in vitro, and studies were conducted in animal tumor models.
(§2) The evaluation of positive or negative effects on proliferation of the tumor cell lines was performed using 3H-thymidine incorporation assays. Evaluation of the inhibition or potentiation of human tumor cell growth and/or metastasis was determined using a tumor xenograft nude/SCID mouse model. Thirty-two tumor cell lines were screened. Of the thirty-two tumor cell lines, twelve were colorectal carcinoma, colorectal adenocarcinoma, colon adenocarcinoma, or colon carcinoma cell lines; seven were melanomas or amelanotic melanomas; six were urinary bladder transitional cell carcinomas or urinary bladder carcinomas; three were leukemias; two were lymphomas; and two were prostate carcinomas.
(§3) An adhesion assay for VCAM-1 binding was also performed. Seven of the eleven cell lines evaluated were positive. […] AS283, HT-29, MOLT-4, and UM-UC-3 cell lines were treated with Tysabri® (natalizumab). Tritiated thymidine uptake was measured.

[4] = tested on: tumor cell lines (nine evaluated); experiment: Preliminary cell proliferation assay on nine tumor cell lines; assay type: cell-based; conditions: all nine of the nine cell lines evaluated
Protocol: as §2, §3

UM-UC-3 cell line = experiment: 3H-thymidine incorporation (tritiated thymidine uptake) proliferation assay, UM-UC-3; assay type: cell-based; conditions: 1, 2, 3, 4 and 5 days of exposure, eight concentrations (0.001-100 mg/mL)
Protocol: as §1, §2, §3

HT-29 cell line = experiment: 3H-thymidine incorporation (tritiated thymidine uptake) proliferation assay, HT-29; assay type: cell-based; conditions: 1, 2, 3, 4 and 5 days of exposure, eight concentrations (0.001-100 mg/mL)
Protocol: as §1, §2, §3

[5] = Tolerability (deaths, body weight) in MOLT-4 xenograft-bearing SCID mice
Source text: as §4, §5, §6, §7

MOLT-4 cell line = experiment: 3H-thymidine incorporation (tritiated thymidine uptake) proliferation assay, MOLT-4; assay type: cell-based, human; conditions: 1, 2, 3, 4 and 5 days of exposure, eight concentrations (0.001-100 mg/mL)
Protocol: as §1, §2, §3

[6] = tested on: human MOLT-4 acute lymphoblastic leukemia xenografts; experiment: Growth of subcutaneously-implanted human MOLT-4 xenografts in SCID mice; assay type: in vivo, female SCID mice; conditions: treatment initiated Day -7

CC(=O)O[C@H]1C(=O)[C@@]2(C)[C@H]([C@H](OC(=O)c3ccccc3)[C@]3(O)C[C@H](OC(=O)[C@H](O)[C@@H](NC(=O)c4ccccc4)c4ccccc4)C(C)=C1C3(C)C)[C@]1(OC(C)=O)CO[C@@H]1C[C@@H]2O [Taxol, placlitaxel, reference compound]
Gross and microscopic lesions, relation to treatment [1]: spontaneous or incidental and unrelated | Tolerability of administration [2]: well tolerated without deaths or sustained body weight loss | Measurable tumors that doubled their mass once over the course of the experiment ([3]; no excision (Group 4)): three out of eight | Animals with no measurable tumor at termination of the experiment ([3]; no excision, 15 mg/kg/dose IV Q1Dx5 from Day 14): Twelve out of twenty | Effect on growth of SC-implanted MOLT-4 xenografts (primary tumor) ([3]; no excision): very effective in the inhibition

natalizumab: a humanized antibody against VLA-4 as described in U.S. Pat. Nos. 5,840,299 and 6,033,665
Exacerbation of growth or metastasis of the xenografts (histopathology) [1]: no evidence of exacerbation of growth or metastasis | Gross and microscopic lesions, relation to treatment [1]: spontaneous or incidental and unrelated | Tritiated thymidine uptake: cytotoxic or proliferative effect (AS283 cell line): no evidence of a cytotoxic or proliferative effect | Preliminary cell proliferation assay: cytotoxic or proliferative effect [4]: no cytotoxic or proliferative effect | Tritiated thymidine uptake: cytotoxic or proliferative effect (UM-UC-3 cell line): no evidence of a cytotoxic or proliferative effect | Tritiated thymidine uptake: cytotoxic or proliferative effect (HT-29 cell line): no evidence of a cytotoxic or proliferative effect | Effect on animal health (body weights over the treatment period) ([5]; mouse, in vivo): did not adversely affect animal health | Tolerability of administration ([5]; non-excision groups, natalizumab and IgG4 IP Days 14-45, Taxol IV Q1Dx5): well tolerated without deaths | Tritiated thymidine uptake: cytotoxic or proliferative effect (MOLT-4 cell line): no evidence of a cytotoxic or proliferative effect | Effect on tumor growth, treatment initiated prior to tumor implantation [6]: significant decrease in tumor growth | Median tumor weight ([3]; Day 47, treatment started Day 14 on established tumor, no excision (Groups 2-4)): 1240 mg | Median tumor weight (re-grown tumor) ([3]; Day 80, primary tumor excised Day 28 (Group 6)): 1006 mg | Animals staying tumor-free on day of study termination ([3]; Group 6, Day 80): two | Animals whose tumor re-grew at the site of the primary tumor following excision ([3]; Group 6, excision Day 28): seventeen out of nineteen | Effect on re-growth of tumor at the site of excision of the primary tumor ([3]; Group 6 vs Group 5, excision Day 28): re-grew at a slower rate | Tumors growing / animals with tumor at termination of the experiment ([3]; no excision (Groups 2 and 3)): All twenty tumors grew | Time for median tumor to reach four tumor mass doublings ([3]; primary tumor excised Day 28 (Group 6), not reached): > 66.0 days | Effect on growth of SC-implanted MOLT-4 xenografts (primary tumor) ([3]; no excision): not inhibited | Time for median tumor to reach four tumor mass doublings ([3]; treatment started Day 14 on established tumor, no excision (Groups 2-4)): 33.5 days
